Laboratory results published in patent US20050061967A1, “Pattern recognition of whole cell mass spectra” (priority 2003, published 2005).

How the values were obtained:
Experiment in all cases: MIC of antibiotics, antibiotic resistance profile of Salmonella enterica isolates
Type in all cases: cell-based
[1] = system: Salmonella enterica serotype Muenster isolates
Excerpt: (§1) To identify charge state of each ion cluster, we performed the following analyses on twenty-nine Salmonella enterica isolates (21 of serotype Heidelberg, 3 Anatum, 3 Worthington and 2 Muenster) from a turkey production environment. From the high mass end of the spectrum, we divided each ion peak by 2 or 3, look there for a corresponding peak. Ions at small integer dividends are then tabulated together with the largest, assumed to be a+1 charge state. Based on the assigned charge state, sum intensities (in the raw spectra) arising from nearby adducts or losses were calculated at their charge-state-predicted interval. The total around each same-charge-state cluster were added to the total for the same biomarker at its other identified charge states. Spectra were smoothed, the background was subtracted and then peaks were detected. Deconvolution was based on peaks at least 3% intensity of the base peak.
(§2) The Salmonella enterica isolates were also typed by their antibiotic resistance and Pulsed-Field Gel Electrophoresis (PFGE) patterns. The isolates'=0 resistance profile, a common and obviously important phenotypic assay, was determined for twenty antibiotics commonly used in veterinary medicine to control Salmonella infections. PFGE is the most common and widely accepted genotypic method currently in use. The PFGE patterns were analyzed by statistical pattern recognition to produce a dendrogram in which similar gel patterns are clustered so that they appear in or near the same branch of a similarity “tree.” Then the two types of mass spectra for the same twenty-nine samples, under several variations, were also evaluated by pattern recognition.

[2] = system: Salmonella enterica serotype Worthington isolates
Excerpt: as §1, §2

[3] = system: Salmonella enterica serotype Heidelberg isolates
Protocol: as §2

[4] = system: Salmonella enterica serotype Anatum isolates
Excerpt: as §1, §2

[5] = 29th of 29 isolates (ID printed 9)
[6] = 6th of 29 isolates (ID cell blank)
[7] = 9th of 29 isolates (ID cell blank)
[8] = 7th of 29 isolates (ID cell blank)
[9] = 18th of 29 isolates (ID printed 8)
[10] = 22nd of 29 isolates (ID printed 2)
[11] = 1st of 29 isolates (ID cell blank), turkey production environment
[12] = 2nd of 29 isolates (ID cell blank)
[13] = 3rd of 29 isolates (ID cell blank)

Row | Structure (SMILES) | MIC [1, 5] | MIC ([2]; 26th of 29 isolates (ID 6)) | MIC [3, 6] | MIC [3, 7] | MIC ([3]; 10th of 29 isolates (ID 0)) | MIC ([3]; 11th of 29 isolates (ID 1)) | MIC ([3]; 13th of 29 isolates (ID 3)) | MIC ([3]; 14th of 29 isolates (ID 4)) | MIC ([3]; 15th of 29 isolates (ID 5)) | MIC ([3]; 20th of 29 isolates (ID 0)) | MIC [3, 8] | MIC ([3]; 16th of 29 isolates (ID 6)) | MIC [3, 9] | MIC ([3]; 21st of 29 isolates (ID 1)) | MIC [3, 10] | MIC ([3]; 24th of 29 isolates (ID 4)) | MIC [4, 11] | MIC [4, 12] | MIC [4, 13] | other results
1 | CC[C@H]1OC(=O)[C@H](C)[C@@H](O[C@H]2C[C@@](C)(OC)[C@@H](O)[C@H](C)O2)[C@H](C)[C@@H](O[C@@H]2O[C@H](C)C[C@H](N(C)C)[C@H]2O)[C@](C)(O)C[C@@H](C)C(=O)[C@H](C)[C@@H](O)[C@]1(C)O [Er] | 32 µg/mL | 64 µg/mL | >512 µg/mL | 512 µg/mL | 512 µg/mL | 512 µg/mL | 512 µg/mL | 512 µg/mL | 512 µg/mL | 512 µg/mL | – | – | – | – | – | – | – | – | – | MIC ([1]; 28th of 29 isolates (ID printed 8)): 512 µg/mL; MIC ([3]; 4th of 29 isolates (ID cell blank)): 512 µg/mL; MIC ([3]; 8th of 29 isolates (ID cell blank)): 512 µg/mL
2 | CN[C@@H]1[C@H](O)[C@H](NC)[C@H]2O[C@@]3(O)C(=O)C[C@@H](C)O[C@H]3O[C@@H]2[C@H]1O [Spt] | – | – | >512 µg/mL | >512 µg/mL | >512 µg/mL | >512 µg/mL | >512 µg/mL | >512 µg/mL | >512 µg/mL | >512 µg/mL | >512 µg/mL | >512 µg/mL | >512 µg/mL | >512 µg/mL | >512 µg/mL | >512 µg/mL | – | – | – | –
3 | CN[C@@H]1[C@H](O[C@H]2[C@H](O[C@H]3[C@H](O)[C@@H](O)[C@H](N=C(N)N)[C@@H](O)[C@@H]3N=C(N)N)O[C@@H](C)[C@]2(O)C=O)O[C@@H](CO)[C@H](O)[C@H]1O [St] | >256 µg/mL | – | >256 µg/mL | >256 µg/mL | >256 µg/mL | >256 µg/mL | >256 µg/mL | >256 µg/mL | >256 µg/mL | >256 µg/mL | >256 µg/mL | >256 µg/mL | >256 µg/mL | >256 µg/mL | >256 µg/mL | >256 µg/mL | 256 µg/mL | 256 µg/mL | 256 µg/mL | –
4 | CN(C)C1C(O)=C(C(N)=O)C(=O)C2(O)C(O)=C3C(=O)c4c(O)cccc4C(C)(O)C3CC12 (stereo not drawn) [Te] | – | 32 µg/mL | – | – | 256 µg/mL | – | – | – | – | – | – | – | – | – | – | 256 µg/mL | 512 µg/mL | 256 µg/mL | 256 µg/mL | MIC ([2]; 17th of 29 isolates (ID printed 7)): 32 µg/mL; MIC ([2]; 27th of 29 isolates (ID printed 7)): 32 µg/mL; MIC ([3]; 5th of 29 isolates (ID cell blank)): 128 µg/mL
